From US20050209278A1, “Piperidinyl- and piperazinyl-sulfonylmethyl hydroxamic acids and their use as protease inhibitors” (priority 2002, published 2005) come the findings set out here.

Where a name gives a salt, the structure may show the parent alone. Read-outs that look alike come from different tables or passages of the source.

One experiment addresses T1, MMP-14 (Homo sapiens, UniProt P50281).
T1 construct: The catalytic domain enzyme was expressed in E. coli inclusion bodies, solubilized in urea; made in house
As to the kind of experiment: In vitro MMP inhibition, Ki determination (fluorogenic substrate II). The class given is biochemical. The protocol: (§1) Several hydroxamic acids and salts thereof were analyzed in in vitro assays to determine their ability to inhibit the MMP cleavage of peptide substrates. […] and IC50 constants were calculated from the assayed hydroxamic acid-MMP interactions.
(§2) Human recombinant MMP-1, MMP-2, MMP-9, MMP-13, and MMP-14 were used in this assay. All enzymes were prepared in Assignee's laboratories following usual laboratory procedures. Protocols for the preparation and use of these enzymes are available in the scientific literature. See, e.g., Enzyme Nomenclature (Academic Press, San Diego, Calif., 1992) (and the citations therein). See also, Freije et al., “Molecular cloning and expression of collagenase-3, a novel human matrix metalloproteinase produced by breast carcinomas,” J Biol. Chem., 269(24), 16766-16773 (1994).
The MMP-14 full length cDNA was provided by Dr. Gregory Goldberg of Washington University (St. Louis, Mo.). The catalytic domain enzyme was expressed in E. coli inclusion bodies, solubilized in urea, purified on a preparative […] reverse phase HPLC column, and then refolded in the presence of zinc acetate and purified for use.
(§3) All MMPs were activated using 4-aminophenylmercuric acetate (“APMA”, Sigma Chemical, St. Louis, Mo.) or trypsin. MMP-9 also was activated using human recombinant MMP-3 (purified in Assignee's laboratory following standard cloning and purification techniques).
(§4) Two fluorogenic, methoxycoumarin-containing polypeptide substrates were used in the MMP inhibition assays: [drawing 427] Here, “Dpa” is 3-(2,4-dinitrophenyl)-L-2,3-diaminopropionyl group, and “MCA” is 7-methoxycoumarin-4-yl acetyl. Substrate (I) was purchased from Baychem (Redwood City, Calif.), and substrate II was prepared Assignee's laboratory. Substrate I was used in the IC50 determination assays, while substrate II was used in the Ki determination assays. In the absence of MMP inhibitory activity, either substrate is cleaved at the Gly-Leu peptide bond. This cleavage separates the highly fluorogenic peptide from the 2,4-dinitrophenyl quencher, thus resulting in increase of fluorescent intensity.
(§5) The stock solutions of the assayed hydroxamic acids (or salts thereof) were prepared in 1% dimethyl sulfoxide (DMSO). These stock solutions were diluted in Buffer A (100 mM Tris-HCl, 100 mM NaCl, 10 mM CaCl2, 0.05% polyoxyethylene 23 lauryl ether, pH 7.5) to obtain solutions with different hydroxamic acid concentrations, i.e., assay solutions with different concentrations of the assayed MMP inhibitory compound. The experiment controls contained the same amount of Buffer A/DMSO as the assayed sample, but contained no hydroxamic acid (or salt thereof).
(§6) The assays from which the Ki determinations were made were performed as follows. The assayed hydroxamic acid samples were incubated in separate wells of untreated white polystyrene plates (Nunc Nalgene International, Rochester, N.Y.), and analyzed on a Tecan SpectraFlour Plus plate reader. The excitation wavelength was 330 nm, and the emission wavelength—420 nm. All samples (assayed hydroxamic acids and controls) were incubated in separate plate wells at room temperature for 1 hr in the presence of 4 μM of MMP substrate (II). In the absence of MMP inhibitory activity, substrate II was cleaved at the Gly-Leu bond resulting in an increase of relative fluorescence. Inhibition was observed as a reduced rate of this increase in relative fluorescence. The various hydroxamic acids were analyzed using a single low enzyme concentration with a single substrate concentration fixed at or below the Km. This protocol is a modification of method by Knight et al., FEBS Lett., 296(3), 263-266 (1992). Apparent inhibitory constants were determined by non-linear regression of reaction velocity as a function of inhibitor and enzyme concentration using Morrison's equation, as described by Kuzmic, Anal. Biochem. 286, 45-50 (2000).

The target of another experiment is T2, MMP-13 (Homo sapiens, UniProt P45452).
T2 construct: made in house; host or cells: baculovirus / insect cells
The experiment is described as above. The class given is biochemical. The protocol: as §1, §2
The MMP-13 was obtained as a proenzyme from a full-length cDNA clone using baculovirus, as described by V. A. Luckow, “Insect Cell Expression Technology,” Protein Engineering: Principles and Practice, pp. 183-218 (edited by J. L. Cleland et al., Wiley-Liss, Inc., 1996). The expressed proenzyme was first purified over a heparin agarose column, and then over a chelating zinc chloride column. The proenzyme was then activated by APMA for use in the assay. […] See also, O'Reilly et al, Baculovirus Expression Vectors: A Laboratory Manual (W.H. Freeman and Co., New York, N.Y., 1992). See also, King et al., The Baculovirus Expression System: A Laboratory Guide (Chapman & Hall, London, England, 1992).
as §3, §4, §5
as §6, with “Km.” for “Km. This protocol is a modification of method by Knight et al., FEBS Lett., 296(3), 263-266 (1992). Apparent inhibitory constants were determined by non-linear regression of reaction velocity as a function of inhibitor and enzyme concentration using Morrison's equation, as described by Kuzmic, Anal. Biochem. 286, 45-50 (2000).”

[1] abbreviates: value not in parenthesis, read-out: MMP-14 Ki.
The mark [2] stands for this setting: value not in parenthesis, read-out: MMP-13 Ki.
[3] abbreviates: human recombinant enzyme (catalytic domain), 4 μM substrate II, room temperature, 1 hr, read-out: MMP-14 Ki.
The mark [4] stands for this setting: human recombinant enzyme, 4 μM substrate II, room temperature, 1 hr, read-out: MMP-13 Ki.

For `COCCN1CCC(C(=O)NO)(S(=O)(=O)N2CCN(c3ccc(OCC(F)(F)C(F)(F)F)cc3)CC2)CC1` [Example 144], the Ki at MMP-14 (setting [1]) was greater than 10000 nM; on MMP-13 (setting [2]), 0.306 nM.

In the case of `O=C(NO)C1(S(=O)(=O)N2CCN(c3ccc(-c4ccc(Cl)cc4)cn3)CC2)CCOCC1` [Example 60], the Ki on MMP-14 (setting [1]) was determined as 328 nM; on MMP-13 (setting [2]), 0.32 nM.

For the molecule `O=C(NO)C1(S(=O)(=O)N2CCN(c3ccc(CCC(F)(F)C(F)(F)F)cc3)CC2)CCOCC1` [Example 17, N-hydroxy-4-({4-[4-(3,3,4,4,4-pentafluorobutyl)phenyl]piperazin-1-yl}sulfonyl)tetrahydro-2H-pyran-4-carboxamide Hydrochloride], the Ki at MMP-14 (setting [3]) was 7970 nM; on MMP-13 (setting [4]), 0.328 nM.

With `CCCCCc1ccc(N2CCN(S(=O)(=O)C3(C(=O)NO)CCN(C(=O)C(F)(F)F)CC3)CC2)cc1` [Example 21, N-hydroxy-4-{[4-(4-pentylphenyl)piperazin-1-yl]sulfonyl}-1-(trifluoroacetyl)piperidine-4-carboxamide Hydrochloride], the results for the Ki on MMP-14 (setting [3]) and at MMP-13 (setting [4]) were 6910 nM and 6.17 nM, respectively.

With `COCCN1CCC(C(=O)NO)(S(=O)(=O)N2CCN(c3ccc(OCCCC(F)(F)F)cc3)CC2)CC1` [Example 9, N-hydroxy-1-(2-methoxyethyl)-4-({4-[4-(4,4,4-trifluorobutoxy)phenyl]piperazin-1-yl}sulfonyl)piperidine-4-carboxamide Dihydrochloride], the Ki on MMP-14 (setting [3]) is 5910 nM; on MMP-13 (setting [4]), 0.05 nM.

Regarding `CCCCc1ccc(N2CCN(S(=O)(=O)C3(C(=O)NO)CCN(c4ccc(C)cc4)CC3)CC2)cc1` [Example 146], the Ki was 8660 nM on MMP-14 (setting [1]) and 9.38 nM on MMP-13 (setting [2]).

For the molecule `COc1ccc(-c2cnc(N3CCN(S(=O)(=O)C4(C(=O)NO)CCOCC4)CC3)nc2)cc1` [Example 8, N-hydroxy-4-({4-[5-(4-methoxyphenyl)pyrimidin-2-yl]piperazin-1-yl}sulfonyl)tetrahydro-2H-pyran-4-carboxamide Hydrochloride], the inhibition constant (Ki) on MMP-14 (setting [3]) worked out at 468 nM; at MMP-13 (setting [4]) it was 0.11 nM.

As for `COCCN1CCC(C(=O)NO)(S(=O)(=O)N2CCC(c3ccc(OCCCC(F)(F)F)cc3)CC2)CC1` [Example 20, N-hydroxy-1-(2-methoxyethyl)-4-({4-[4-(4,4,4-trifluorobutoxy)phenyl]piperidin-1-yl}sulfonyl)piperidine-4-carboxamide Hydrochloride], the Ki at MMP-14 (setting [3]) was determined as 2670 nM; at MMP-13 (setting [4]), 0.15 nM.

As to `CCCCOc1ccc(N2CCN(S(=O)(=O)C3(C(=O)NO)CCN(c4ccc(C)nc4)CC3)CC2)cc1` [Example 131], the figures for the Ki at MMP-14 (setting [1]) and at MMP-13 (setting [2]) were 3660 nM and 0.621 nM, respectively.

As to `O=C(NO)C1(S(=O)(=O)N2CCN(c3ccc(COCC(F)(F)C(F)(F)C(F)(F)C(F)F)cc3)CC2)CCOCC1` [Example 68], the Ki is greater than 10000 nM on MMP-14 (MMP-14 Ki, value not in parenthesis) and 1.85 nM at MMP-13 (MMP-13 Ki, value not in parenthesis).

Regarding `O=C(NO)C1(S(=O)(=O)N2CCN(c3ccc(OC(F)(F)C(F)F)cc3)CC2)CCOCC1` [Example 4, 4-({4-[4-(1,1,2,2-tetrafluoroethoxy)phenyl]piperazinyl}sulfonyl)perhydro-2H-pyran-4-carbohydroxamic Acid], the Ki worked out at 954 nM on MMP-14 (setting [3]) and 0.216 nM at MMP-13 (setting [4]).

As for `COCCN1CCC(C(=O)NO)(S(=O)(=O)N2CCN(c3ccc(OCC(F)(F)F)cc3)CC2)CC1` [Example 119], the Ki was found to be 4380 nM at MMP-14 (setting [1]) and 0.79 nM on MMP-13 (setting [2]).

As to `CCCCOc1ccc(N2CCN(S(=O)(=O)C3(C(=O)NO)CCN(c4ccc(OCCOC)nn4)CC3)CC2)cc1` [Example 129], the Ki amounted to 1300 nM on MMP-14 (setting [1]) and 0.302 nM at MMP-13 (setting [2]).

Take `O=C(NO)C1(S(=O)(=O)N2CCN(c3ccc(OCCCC(F)(F)F)cc3F)CC2)CCOCC1` [Example 117]: at MMP-14 (setting [1]), the Ki was 5690 nM.

In the case of `CCCCOc1ccc(N2CCN(S(=O)(=O)C3(C(=O)NO)CCN(c4nccc(C(F)(F)F)n4)CC3)CC2)cc1` [Example 130], the Ki at MMP-14 (setting [1]) is greater than 10000 nM.
